Legend:
[1] = target: T1, Tyrosine-protein phosphatase non-receptor type 11 (Homo sapiens, UniProt Q06124); assay: Inhibition of SHP2 ( 1 to 525 residues) (unknown origin)
T1 sequence (Q06124 whole entry): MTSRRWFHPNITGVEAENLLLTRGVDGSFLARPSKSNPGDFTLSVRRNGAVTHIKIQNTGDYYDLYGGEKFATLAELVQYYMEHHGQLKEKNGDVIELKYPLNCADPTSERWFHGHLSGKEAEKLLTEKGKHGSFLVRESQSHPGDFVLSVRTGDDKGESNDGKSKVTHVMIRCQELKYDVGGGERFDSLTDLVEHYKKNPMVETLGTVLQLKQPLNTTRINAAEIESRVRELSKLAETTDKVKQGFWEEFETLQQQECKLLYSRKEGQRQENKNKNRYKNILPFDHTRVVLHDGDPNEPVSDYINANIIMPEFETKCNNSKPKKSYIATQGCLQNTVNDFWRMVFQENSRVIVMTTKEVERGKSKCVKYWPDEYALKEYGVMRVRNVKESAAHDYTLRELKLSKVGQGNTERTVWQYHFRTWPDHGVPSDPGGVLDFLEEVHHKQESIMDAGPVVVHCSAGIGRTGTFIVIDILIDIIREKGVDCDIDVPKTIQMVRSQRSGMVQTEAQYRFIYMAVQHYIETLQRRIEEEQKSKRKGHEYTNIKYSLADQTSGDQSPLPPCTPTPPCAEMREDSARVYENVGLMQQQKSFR

[2] = target: T2, Tyrosine-protein phosphatase non-receptor type 6 (Homo sapiens, UniProt P29350); assay: Inhibition of SHP1 (unknown origin)
T2 sequence (P29350 whole entry): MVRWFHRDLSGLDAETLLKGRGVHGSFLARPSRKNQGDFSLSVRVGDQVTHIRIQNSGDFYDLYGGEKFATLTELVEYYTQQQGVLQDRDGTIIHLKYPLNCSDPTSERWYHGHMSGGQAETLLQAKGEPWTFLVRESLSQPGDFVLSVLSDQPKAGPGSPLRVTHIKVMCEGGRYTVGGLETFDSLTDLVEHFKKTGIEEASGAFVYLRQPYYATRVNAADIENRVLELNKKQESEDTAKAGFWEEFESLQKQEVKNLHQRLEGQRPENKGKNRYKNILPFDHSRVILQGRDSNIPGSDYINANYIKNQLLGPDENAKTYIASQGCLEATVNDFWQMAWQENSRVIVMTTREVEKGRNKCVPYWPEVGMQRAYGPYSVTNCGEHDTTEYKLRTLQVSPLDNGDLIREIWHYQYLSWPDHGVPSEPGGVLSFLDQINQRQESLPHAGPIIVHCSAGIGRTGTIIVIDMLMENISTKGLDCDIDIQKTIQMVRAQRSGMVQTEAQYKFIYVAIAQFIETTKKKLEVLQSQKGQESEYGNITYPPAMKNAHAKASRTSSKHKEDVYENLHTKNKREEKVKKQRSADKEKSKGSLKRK

[3] = target: T3, Tyrosine-protein phosphatase non-receptor type 1 (Homo sapiens, UniProt P18031); assay: Inhibition of PTP1B (unknown origin)
T3 sequence (P18031 whole entry): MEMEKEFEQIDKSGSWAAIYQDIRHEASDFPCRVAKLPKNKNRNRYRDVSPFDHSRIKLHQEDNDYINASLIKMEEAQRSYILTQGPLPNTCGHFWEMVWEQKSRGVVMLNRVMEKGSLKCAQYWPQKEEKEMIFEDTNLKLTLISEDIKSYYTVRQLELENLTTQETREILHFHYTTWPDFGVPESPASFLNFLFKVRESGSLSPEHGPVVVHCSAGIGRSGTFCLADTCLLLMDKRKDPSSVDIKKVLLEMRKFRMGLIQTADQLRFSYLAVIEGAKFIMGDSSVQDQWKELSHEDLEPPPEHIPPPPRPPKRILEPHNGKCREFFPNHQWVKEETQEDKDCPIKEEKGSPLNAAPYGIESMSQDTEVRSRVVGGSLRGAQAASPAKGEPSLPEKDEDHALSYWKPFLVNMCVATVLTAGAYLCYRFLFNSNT

[4] = target: T3, Tyrosine-protein phosphatase non-receptor type 1; assay: Inhibition of recombinant GST-fused human PTP1B (1 to 435 residues) using DiFMUP as substrate incubated for 30 mins by fluorescence based assay
[5] = target: T2, Tyrosine-protein phosphatase non-receptor type 6
Description: Inhibition of recombinant GST-fused human SHP1 (205 to 597 residues) using DiFMUP as substrate incubated for 30 mins by fluorescence based assay

[6] = target: T1, Tyrosine-protein phosphatase non-receptor type 11
Description: Inhibition of SHP2 (unknown origin)

Work on COc1cccc(-c2nnc3n(Cc4ccccc4Cl)c(=O)c4ccccc4n23)c1O yielded an IC50 [1] of 60 µM.

With O=C1/C(=N\Nc2ccc(S(=O)(=O)O)cc2)C(c2ccc([N+](=O)[O-])cc2)=NN1c1ccccc1 the IC50 [2] was 30 µM and the IC50 [3] was 19 µM.

For O=S(=O)(O)c1ccc2cc(/N=N/c3cc(S(=O)(=O)O)c4cccnc4c3O)ccc2c1, the IC50 [4] was 1.69 µM and the IC50 [5] was 0.355 µM.

In the case of O=C1Nc2ccc(S(=O)(=O)O)cc2/C1=N/Nc1ccccc1[N+](=O)[O-], the IC50 [6] is reported as 0.8 µM.

— ChEMBL document CHEMBL5233259, “Medicinal chemistry strategies for the development of protein tyrosine phosphatase SHP2 inhibitors and PROTAC degraders” (Eur J Med Chem, 2020)
